Laboratory results: patent publication EP4692061A1, “LOW-MOLECULAR-WEIGHT COMPOUND HAVING CEREBLON-BINDING ACTIVITY, AND USE THEREOF” (Aevis Bio, Inc., priority 2023, dated 2024)

Molecular target: cereblon (CRBN) (Homo sapiens, UniProt Q96SW2)
Experiment: In vitro CRBN binding assay (AlphaScreen, competitive inhibition of the PROTAC assay)
Conditions: not given

| SMILES | IC50 |
| --- | --- |
| O=C1CCC(c2ccc3c(c2)CCNC3=O)C(=O)N1 (centres unmarked) [AEV40041] | 760 nM |

Same assay, conditions: Table 1; AlphaScreen, PROTAC Optimization Kit for BET Bromodomain-Cereblon Binding; read-out: Alpha IC50

| SMILES | IC50 |
| --- | --- |
| Cc1ccc([N+](=O)[O-])cc1S(=O)(=O)Nc1cccc(C2CCC(=O)NC2=O)c1 (centres unmarked) [AEV40060] | 1520 nM |
| O=C1CCC(c2ccc3c(c2)NC(=O)C3)C(=O)N1 (centres unmarked) [AEV40062] | 2390 nM |
| CS(=O)(=O)Nc1cccc(C2CCC(=O)NC2=O)c1 (centres unmarked) [AEV40030] | 7060 nM |
| O=C1CCC(c2cccc(O)c2)C(=O)N1 (centres unmarked) [AEV40089] | 1140 nM |
| O=C1CCC(c2cccc(NCc3cccc(Oc4ccccc4)c3)c2)C(=O)N1 (centres unmarked) [AEV40121] | 3040 nM |
| O=C1CCC(c2ccc3c(c2)CN(CCc2ccccc2)C3=O)C(=O)N1 (centres unmarked) [AEV40049] | 2060 nM |
| O=C1CCC(c2cccc(NCc3cc(F)c(F)c(F)c3)c2)C(=O)N1 (centres unmarked) [AEV40110] | 1960 nM |
| O=C1CCC(c2cccc(NS(=O)(=O)c3ccc(Cl)cc3)c2)C(=O)N1 (centres unmarked) [AEV40037] | 860 nM |
| O=C1CCC(c2cccc(NS(=O)(=O)c3ccc4oc(=O)ccc4c3)c2)C(=O)N1 (centres unmarked) [AEV40071] | 220 nM |
| O=C1CCC(c2cccc(NS(=O)(=O)c3ccccc3[N+](=O)[O-])c2)C(=O)N1 (centres unmarked) [AEV40061] | 590 nM |
| COc1cc(Cl)ccc1CNc1cccc(C2CCC(=O)NC2=O)c1 (centres unmarked) [AEV40096] | 990 nM |
| Nc1cccc(S(=O)(=O)Nc2cccc(C3CCC(=O)NC3=O)c2)c1 (centres unmarked) [AEV40073] | 590 nM |
| Cc1ccc(CNc2cccc(C3CCC(=O)NC3=O)c2)c(C)c1 (centres unmarked) [AEV40094] | 810 nM |
| O=C1CCC(c2cccc(NS(=O)(=O)c3cccc4ccccc34)c2)C(=O)N1 (centres unmarked) [AEV40048] | 790 nM |
| CC(=O)Nc1ccc(F)c(C2CCC(=O)NC2=O)c1 (centres unmarked) [AEV40034] | 6260 nM |
| CC(=O)Nc1cccc(C2CCC(=O)NC2=O)c1 (centres unmarked) [AEV40016] | 5280 nM |
| O=C1CCC(c2cccc(NS(=O)(=O)c3ccccc3C(F)(F)F)c2)C(=O)N1 (centres unmarked) [AEV40070] | 1050 nM |
| Cn1cnc(S(=O)(=O)Nc2cccc(C3CCC(=O)NC3=O)c2)c1 (centres unmarked) [AEV40051] | 790 nM |
| O=C1CCC(c2ccc3c(c2)OCCN(c2ccccc2)C3=O)C(=O)N1 (centres unmarked) [AEV40085] | 6580 nM |
| O=C1CCC(c2cc(NS(=O)(=O)c3ccc(Cl)cc3)ccc2F)C(=O)N1 (centres unmarked) [AEV40038] | 690 nM |
| O=C1CCC(c2ccc(NS(=O)(=O)c3ccc(Cl)cc3)cc2)C(=O)N1 (centres unmarked) [AEV40063] | 1430 nM |
| O=C1CCC(c2cccc(NC(=O)Nc3ccccc3)c2)C(=O)N1 (centres unmarked) [AEV40129] | 370 nM |
| O=C1CCC(c2cccc(NCc3ccc(Cl)cc3)c2)C(=O)N1 (centres unmarked) [AEV40090] | 2140 nM |
| O=C1CCC(c2cccc(NS(=O)(=O)c3cccs3)c2)C(=O)N1 (centres unmarked) [AEV40072] | 310 nM |
| Cc1ccc(CNc2cccc(C3CCC(=O)NC3=O)c2)s1 (centres unmarked) [AEV40092] | 970 nM |
| O=C1CCC(c2ccc3c(c2)CN(S(=O)(=O)c2ccc(Cl)cc2)C3=O)C(=O)N1 (centres unmarked) [AEV40077] | 55300 nM |
| Cc1ccc(C2CCC(=O)NC2=O)cc1 (centres unmarked) [AEV40039] | 870 nM |
| O=C1CCC(c2cccc(NCc3cccc(C(F)F)c3)c2)C(=O)N1 (centres unmarked) [AEV40105] | 1420 nM |

Next, values leading:

| IC50 | SMILES |
| --- | --- |
| 2300 nM | CC1(C(=O)Nc2cccc(N3CCOc4cc(C5CCC(=O)NC5=O)ccc4C3=O)c2)CC1 (centres unmarked) [AEV40212] |
| 790 nM | O=C1CCC(c2cccc(NS(=O)(=O)c3cccc(NC(=O)c4cccc(Cl)c4)c3)c2)C(=O)N1 (centres unmarked) [AEV40136] |
| 2110 nM | CC1CCC(C(=O)Nc2cccc(N3CCOc4cc(C5CCC(=O)NC5=O)ccc4C3=O)c2)CC1 (centres unmarked) [AEV40213] |
| 710 nM | O=C1CCC(c2cccc(NS(=O)(=O)c3cccc(NC(=O)c4cc(F)cc(F)c4F)c3)c2)C(=O)N1 (centres unmarked) [AEV40158] |
| 1720 nM | O=C1CCC(c2cccc(NC(=O)c3cc(-c4ccccc4)ccc3Cl)c2)C(=O)N1 (centres unmarked) [AEV40222] |
| 820 nM | CCCCc1ccc(C(=O)Nc2cccc(N3CCOc4cc(C5CCC(=O)NC5=O)ccc4C3=O)c2)cc1 (centres unmarked) [AEV40214] |
| 800 nM | O=C1CCC(c2cccc(NC(=O)c3c(Cl)cc(Cl)cc3Cl)c2)C(=O)N1 (centres unmarked) [AEV40138] |
| > 100000 nM | O=C1CCC(c2cccc(Nc3cccc(CCC(=O)NC4CC5(C4)CC(C(=O)O)C5)c3)c2)C(=O)N1 (centres unmarked) [AEV40211] |
| 1380 nM | O=C1CCC(c2cccc(NC(=O)c3cc(Br)ccc3Cl)c2)C(=O)N1 (centres unmarked) [AEV40223] |
| 1430 nM | O=C1CCC(c2cccc(NS(=O)(=O)c3cccc(NCc4cc5ccccc5[nH]4)c3)c2)C(=O)N1 (centres unmarked) [AEV40163] |
| 1000 nM | Cn1cc(Cl)c(C(=O)Nc2cccc(C3CCC(=O)NC3=O)c2)n1 (centres unmarked) [AEV40188] |
| 2630 nM | CC(C)(C)OC(=O)NCc1cccc(Nc2cccc(C3CCC(=O)NC3=O)c2)c1 (centres unmarked) [AEV40186] |
| 800 nM | O=C1CCC(c2cccc(NS(=O)(=O)c3cccc(NC(=O)c4cc(F)c(F)cc4F)c3)c2)C(=O)N1 (centres unmarked) [AEV40153] |
| 1220 nM | Nc1cc(-c2ccccc2)n(C(=O)CCc2cccc(Nc3cccc(C4CCC(=O)NC4=O)c3)c2)n1 (centres unmarked) [AEV40201] |
| 1280 nM | O=C1CCC(c2cccc(NS(=O)(=O)c3cccc(NCc4ccc5[nH]ccc5c4)c3)c2)C(=O)N1 (centres unmarked) [AEV40171] |
| 1370 nM | Cc1cc(Cl)ccc1C(=O)Nc1cccc(C2CCC(=O)NC2=O)c1 (centres unmarked) [AEV40147] |
| 1240 nM | COc1ccc(C(=O)Nc2cccc(C3CCC(=O)NC3=O)c2)c(Cl)c1 (centres unmarked) [AEV40176] |
| 1100 nM | Cc1ccccc1C(=O)Nc1cccc(C2CCC(=O)NC2=O)c1 (centres unmarked) [AEV40146] |

| IC50 | SMILES |
| --- | --- |
| 640 nM | O=C1CCC(c2cccc(NC(=O)c3ccccc3Br)c2)C(=O)N1 (centres unmarked) [AEV40179] |
| 440 nM | O=C1CCC(c2cccc(NC(=O)c3ccccc3-c3ccccc3)c2)C(=O)N1 (centres unmarked) [AEV40218] |
| 1130 nM | O=C1CCC(c2cccc(NC(=O)c3cccc(Cl)c3Cl)c2)C(=O)N1 (centres unmarked) [AEV40134] |
| 910 nM | O=C1CCC(c2cccc(Nc3cccc(CCC(=O)Nc4cc(-c5ccccc5)[nH]n4)c3)c2)C(=O)N1 (centres unmarked) [AEV40209] |
| 2520 nM | O=C1CCC(c2cccc(NC(=O)c3ccc(F)c(F)c3)c2)C(=O)N1 (centres unmarked) [AEV40166] |
| 2150 nM | O=C1CCC(c2cccc(NC(=O)c3cccc(-c4ccccc4)c3)c2)C(=O)N1 (centres unmarked) [AEV40162] |
| 1230 nM | CN1CCN(c2ccc(NC(=O)CCc3cccc(Nc4cccc(C5CCC(=O)NC5=O)c4)c3)cc2)CC1 (centres unmarked) [AEV40196] |
| 2210 nM | O=C1CCC(c2cccc(Nc3cccc(NC(=O)C4(C(=O)Nc5ccc(F)cc5)CC4)c3)c2)C(=O)N1 (centres unmarked) [AEV40219] |
| 1410 nM | COC(=O)CCc1cccc(Nc2cccc(C3CCC(=O)NC3=O)c2)c1 (centres unmarked) [AEV40184] |
| 960 nM | CC(=O)N1CCC(NC(=O)CCc2cccc(Nc3cccc(C4CCC(=O)NC4=O)c3)c2)CC1 (centres unmarked) [AEV40200] |
| 1130 nM | O=C1CCC(c2cccc(NC(=O)c3ccccc3C(F)(F)F)c2)C(=O)N1 (centres unmarked) [AEV40180] |
| 960 nM | O=C1CCC(c2cccc(NC(=O)c3ccccc3Cl)c2)C(=O)N1 (centres unmarked) [AEV40144] |
| 12100 nM | O=C1CCC(c2cccc(NS(=O)(=O)c3cccc(NC(=O)C4CCOCC4)c3)c2)C(=O)N1 (centres unmarked) [AEV40225] |
| 880 nM | O=C1CCC(c2cccc(NC(=O)c3sccc3Cl)c2)C(=O)N1 (centres unmarked) [AEV40182] |
| 920 nM | O=C1CCC(c2cccc(NC(=O)c3cc(Cl)ccc3Cl)c2)C(=O)N1 (centres unmarked) [AEV40178] |
| 2920 nM | CCOC(=O)/C=C/c1cc(C)ccc1C1CCC(=O)NC1=O (centres unmarked) [AEV40160] |
| 1260 nM | O=C1CCC(c2cccc(NC(=O)Nc3ccc(C(F)(F)F)cc3)c2)C(=O)N1 (centres unmarked) [AEV40133] |

Same assay, conditions: read-out: Alpha IC50; Table 1; AlphaScreen, PROTAC Optimization Kit for BET Bromodomain-Cereblon Binding

| SMILES | IC50 |
| --- | --- |
| Cc1cccc(S(=O)(=O)Nc2cccc(C3CCC(=O)NC3=O)c2)c1 (centres unmarked) [AEV40069] | 710 nM |
